Read-outs that look alike come from different tables or passages of the source. *1 amine or outer side, *2 acyl side, *3 side chain or, on linkers, in order; H or OH if unused. Where a SMILES comes first, the peptide text is derived from it. Bridges are numbered along the chain shown (N, C = ends). [ ]: non-standard residue; d: D form. The star is where a group is joined. hPhe(3,5-F2-4-CF3) = N[C@@H](CCc1cc(F)c(C(F)(F)F)c(F)c1)C(=O)O; hPhe(3-Cl-4-CF3) = N[C@@H](CCc1ccc(C(F)(F)F)c(Cl)c1)C(=O)O; NPrPhe(4-CF3) = CCCN[C@@H](Cc1ccc(C(F)(F)F)cc1)C(=O)O; X14 = CN([C@@H](CCCCC=[*:3])C(=O)[*:2])[*:1]; dαMeAlg = C[C@](CC=[*:3])(N[*:1])C(=O)[*:2]; NMeGly(cPent) = CN[C@H](C(=O)O)C1CCCC1; Pro(4,4-F2) = O=C(O)[C@@H]1CC(F)(F)CN1; Hyp = O=C(O)[C@@H]1C[C@@H](O)CN1; NMeD = CN[C@@H](CC(=O)O)C(=O)O; NMeL = CN[C@@H](CC(C)C)C(=O)O; αMeL = CC(C)C[C@](C)(N)C(=O)O; Morpholide = C1CN(*)CCO1; Ac5c = NC1(C(=O)O)CCCC1; Aze = O=C(O)[C@@H]1CCN1; Ac4c = NC1(C(=O)O)CCC1; Sar = CNCC(=O)O
Key:
[1] = biological target: GDP-bound NRAS wild-type protein (Homo sapiens, UniProt P01111); assay: Binding to NRAS by surface plasmon resonance (SPR), Single Cycle Kinetics; conditions: for NRAS/KRAS (ratio of KD value for NRAS to KD value for KRAS) / NRAS/KRAS (ratio of KD value with respect to NRAS to KD value with respect to KRAS): GDP-bound NRAS wild-type protein vs GDP-bound KRAS wild-type protein; for NRAS/KRAS (ratio of KD value with respect to GDP-bound NRAS wild-type protein to KD value with respect to KRAS): SPR KD ratio NRAS/KRAS, class symbols
[2] = biological target: GDP-bound HRAS wild-type protein (Homo sapiens, UniProt P01112); assay: Binding to HRAS by surface plasmon resonance (SPR), Single Cycle Kinetics; conditions: for HRAS/KRAS (ratio of KD value for HRAS to KD value for KRAS) / HRAS/KRAS (ratio of KD value with respect to HRAS to KD value with respect to KRAS): GDP-bound HRAS wild-type protein vs GDP-bound KRAS wild-type protein; for HRAS/KRAS (ratio of KD value with respect to GDP-bound HRAS wild-type protein to KD value with respect to KRAS): SPR KD ratio HRAS/KRAS, class symbols
[3] = tested on: human lung cancer strain NCI-H441;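 also: cell proliferation inhibition after four days measured by CellTiter-Glo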

GDP-bound HRAS wild-type protein, sequence (P01112 whole entry): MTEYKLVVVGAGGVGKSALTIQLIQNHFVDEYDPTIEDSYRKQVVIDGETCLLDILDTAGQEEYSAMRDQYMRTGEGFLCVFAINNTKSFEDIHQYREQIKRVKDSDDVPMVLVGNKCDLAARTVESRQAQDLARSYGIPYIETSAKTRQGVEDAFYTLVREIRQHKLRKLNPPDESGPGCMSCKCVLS
GDP-bound NRAS wild-type protein, sequence (P01111 whole entry): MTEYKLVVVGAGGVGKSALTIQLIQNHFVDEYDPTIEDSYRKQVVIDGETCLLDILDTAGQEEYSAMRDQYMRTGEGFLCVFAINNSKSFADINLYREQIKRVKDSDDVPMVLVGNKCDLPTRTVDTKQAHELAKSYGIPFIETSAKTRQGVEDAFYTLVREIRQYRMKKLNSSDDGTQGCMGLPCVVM

Row | SMILES | NRAS/KRAS (ratio of KD value for NRAS to KD value for KRAS) ([1]; SPR) | HRAS/KRAS (ratio of KD value for HRAS to KD value for KRAS) ([2]; SPR) | IC50 [3] | further results
1 | CCC[C@H]1C(=O)N[C@@H]([C@@H](C)CC)C(=O)N(C)CC(=O)N(C)[C@H]2C/C=C\CCN(C2=O)[C@@H](CC2CCCCC2)C(=O)N(C)CC(=O)N[C@@H](CCc2ccc(C(F)(F)F)c(OC)c2)C(=O)N2C[C@H](OCC)C[C@H]2C(=O)N(C)C2(CCC2)C(=O)N(C)[C@@H](C(CC)CC)C(=O)N(C)[C@H](C(=O)N(C)C)CC(=O)N1C [PP2333] | A (a compound having 10 or more and less than 20 is denoted as A) | A (a compound having 10 or more and less than 20 is denoted as A) | 0.0447 µM | 
2 | CCO[C@@H]1C[C@H]2C(=O)NC3(CCC3)C(=O)N(C)[C@@H](C3CCCC3)C(=O)N(C)[C@H](C(=O)N3CCOCC3)CC(=O)N(C)[C@@H](Cc3cccc(F)c3)C(=O)N[C@@H]([C@@H](C)CC)C(=O)N(C)CC(=O)N(C)[C@H]3CCCCCN(C3=O)[C@@H](Cc3ccc(C(F)(F)F)cc3)C(=O)N(C)CC(=O)N[C@@H](CCc3cc(F)c(C(F)(F)F)c(F)c3)C(=O)N2C1 [PP0856] | B (a compound having 3 or more and less than 10 is denoted as B) | B (a compound having 3 or more and less than 10 is denoted as B) | 0.0667 µM | 
3 | CC[C@H](C)[C@@H]1NC(=O)[C@H](CC)N(C)C(=O)C[C@@H](C(=O)N2CCOCC2)N(C)C(=O)[C@H](C2CCCC2)N(C)C(=O)C2(CCCC2)NC(=O)[C@@H]2CCCN2C(=O)[C@H](CCc2ccc(C(F)(F)F)c(Cl)c2)NC(=O)CN(C)C(=O)[C@H](Cc2ccc(F)cc2)N2CCCCC[C@@H](C2=O)N(C)C(=O)CN(C)C1=O [PP0959] | B (a compound having 3 or more and less than 10 is denoted as B) | B (a compound having 3 or more and less than 10 is denoted as B) | 0.156 µM | 
4 | CCO[C@@H]1C[C@H]2C(=O)NC3(CCC3)C(=O)N(C)[C@@H](C3CCCC3)C(=O)N(C)[C@H](C(=O)N3CCOCC3)CC(=O)N(C)[C@@H](Cc3ccccc3)C(=O)N[C@@H]([C@@H](C)CC)C(=O)N(C)CC(=O)N(C)[C@H]3CCCCCN(C3=O)[C@@H](Cc3ccc(C(F)(F)F)cc3)C(=O)N(C)CC(=O)N[C@@H](CCc3cc(F)c(C(F)(F)F)c(F)c3)C(=O)N2C1 [PP0687] |  |  | 0.0441 µM | NRAS/KRAS (ratio of KD value with respect to NRAS to KD value with respect to KRAS) ([1]; SPR): B (a compound having 3 or more and less than 10 is denoted as B); HRAS/KRAS (ratio of KD value with respect to HRAS to KD value with respect to KRAS) ([2]; SPR): B (a compound having 3 or more and less than 10 is denoted as B)
5 | CCC(CC)[C@H]1C(=O)N(C)[C@H](C(=O)N(C)C)CC(=O)N(C)[C@@H](COC)C(=O)N[C@@H]([C@@H](C)CC)C(=O)N(C)CC(=O)N(C)[C@H]2C/C=C\CCN(C2=O)[C@@H](Cc2ccc(C)cc2)C(=O)N(C)CC(=O)N[C@@H](CCc2ccc(Cl)c(Cl)c2)C(=O)N2CC3(CC3)C[C@H]2C(=O)N(C)C2(CC(C)(C)C2)C(=O)N1C [PP2820] |  |  | 0.0624 µM | NRAS/KRAS (ratio of KD value with respect to GDP-bound NRAS wild-type protein to KD value with respect to KRAS) [1]: AA (a compound having 20 or more is denoted as AA); HRAS/KRAS (ratio of KD value with respect to GDP-bound HRAS wild-type protein to KD value with respect to KRAS) [2]: A (a compound having 10 or more and less than 20 is denoted as A)
6 | CCC[C@H]1C(=O)N[C@@H]([C@@H](C)CC)C(=O)N(C)CC(=O)N(C)[C@H]2C/C=C\CCN(C2=O)[C@@H](Cc2ccc(C)cc2)C(=O)N(C)CC(=O)N[C@@H](CCc2ccc3ccn(C)c3c2)C(=O)N2C[C@H](OCC)C[C@H]2C(=O)NC2(CC(C)(C)C2)C(=O)N(C)[C@@H](C(CC)CC)C(=O)N(C)[C@H](C(=O)N(C)C)CC(=O)N1C [PP2914] |  |  | 0.311 µM | NRAS/KRAS (ratio of KD value with respect to GDP-bound NRAS wild-type protein to KD value with respect to KRAS) [1]: AA (a compound having 20 or more is denoted as AA); HRAS/KRAS (ratio of KD value with respect to GDP-bound HRAS wild-type protein to KD value with respect to KRAS) [2]: A (a compound having 10 or more and less than 20 is denoted as A)
7 | CCCN1C(=O)CN(C)C(=O)[C@@H]2CCN2C(=O)[C@H]([C@@H](C)CC)NC(=O)[C@H](CC(C)C)N(C)C(=O)C[C@@H](C(=O)N(C)C)NC(=O)[C@H](C2CCCC2)N(C)C(=O)C2(CCC2)NC(=O)[C@@H]2CC(F)(F)CN2C(=O)[C@H](CCc2ccc(C(F)(F)F)c(Cl)c2)NC(=O)CN(C)C(=O)[C@@H]1Cc1ccc(C(F)(F)F)cc1 [PP0376] ([NMeL]I[Aze][Sar][NPrPhe(4-CF3)][Sar][hPhe(3-Cl-4-CF3)][Pro(4,4-F2)][Ac4c][NMeGly(cPent)]D-NMe2; lactam N-11) | B (a compound having 3 or more and less than 10 is denoted as B) | B (a compound having 3 or more and less than 10 is denoted as B) | 0.114 µM | 
8 | CCCN1C(=O)CN(C)C(=O)[C@@H]2CCN2C(=O)[C@H]([C@@H](C)CC)NC(=O)[C@H](CC(C)C)N(C)C(=O)C[C@@H](C(=O)N2CCOCC2)N(C)C(=O)[C@H](C2CCCC2)N(C)C(=O)[C@](C)(CC(C)C)NC(=O)[C@@H]2CCCN2C(=O)[C@H](CCc2cc(F)c(C(F)(F)F)c(F)c2)NC(=O)CN(C)C(=O)[C@@H]1Cc1ccc(C(F)(F)F)cc1 [PP0776] ([NMeL]I[Aze][Sar][NPrPhe(4-CF3)][Sar][hPhe(3,5-F2-4-CF3)]P[αMeL][NMeGly(cPent)][NMeD]-Morpholide; lactam N-11) |  |  | 0.591 µM | NRAS/KRAS (ratio of KD value with respect to NRAS to KD value with respect to KRAS) ([1]; SPR): B (a compound having 3 or more and less than 10 is denoted as B); HRAS/KRAS (ratio of KD value with respect to HRAS to KD value with respect to KRAS) ([2]; SPR): B (a compound having 3 or more and less than 10 is denoted as B)
9 | CCCN1C(=O)CN(C)C(=O)CN(C)C(=O)[C@H]([C@@H](C)CC)NC(=O)[C@@H]2CCCCC=CC[C@@](C)(NC(=O)[C@@H]3C[C@@H](OCC)CN3C(=O)[C@H](CCc3cc(F)c(C(F)(F)F)c(F)c3)NC(=O)CN(C)C(=O)[C@@H]1Cc1ccc(C(F)(F)F)cc1)C(=O)N(C)[C@@H](C1CCCC1)C(=O)N(C)[C@H](C(=O)N1CCOCC1)CC(=O)N2C [PP0902] ([X14]I[Sar][Sar][NPrPhe(4-CF3)][Sar][hPhe(3,5-F2-4-CF3)][Hyp](Et)[dαMeAlg][NMeGly(cPent)][NMeD]-Morpholide; staple 1-9; lactam N-11) | A (a compound having 10 or more and less than 20 is denoted as A) | B (a compound having 3 or more and less than 10 is denoted as B) | 0.0726 µM | 
10 | CCCN1C(=O)CN(C)C(=O)[C@@H]2CCN2C(=O)[C@H]([C@@H](C)CC)NC(=O)[C@H](CC(C)C)N(C)C(=O)C[C@@H](C(=O)N2CCOCC2)N(C)C(=O)[C@H](C2CCCC2)N(C)C(=O)C2(CCC2)NC(=O)[C@@H]2CC(F)(F)CN2C(=O)[C@H](CCc2ccc(C(F)(F)F)c(Cl)c2)NC(=O)CN(C)C(=O)[C@@H]1Cc1ccc(C(F)(F)F)cc1 [PP0404] ([NMeL]I[Aze][Sar][NPrPhe(4-CF3)][Sar][hPhe(3-Cl-4-CF3)][Pro(4,4-F2)][Ac4c][NMeGly(cPent)][NMeD]-Morpholide; lactam N-11) | B (a compound having 3 or more and less than 10 is denoted as B) | C (A compound having a KD ratio of 0.1 or more and less than 3 is denoted as C) | 0.0217 µM | 
11 | CCO[C@@H]1C[C@H]2C(=O)N(C)C3(CC(C)(C)C3)C(=O)N(C)[C@@H](C3CCCC3)C(=O)N(C)[C@H](C(=O)N(C)C)CC(=O)N(C)[C@H]3CCCCCc4ccc(cc4)C[C@@H](C(=O)N(C)CC(=O)N[C@@H](CCc4ccc(C(F)(F)F)c(OC)c4)C(=O)N2C1)N1CC/C=C\C[C@@H](C1=O)N(C)C(=O)CN(C)C(=O)[C@H]([C@@H](C)CC)NC3=O [PP3091] | A (a compound having 10 or more and less than 20 is denoted as A) | B (a compound having 3 or more and less than 10 is denoted as B) |  | ratio of the KD value with respect to GDP-bound NRAS wild-type protein to the KD value with respect to KRAS ([1]; SPR, KD(NRAS)/KD(KRAS)): A (a compound having 10 or more and less than 20 is denoted as A); ratio of the KD value with respect to GDP-bound HRAS wild-type protein to the KD value with respect to KRAS ([2]; SPR, KD(HRAS)/KD(KRAS)): B (a compound having 3 or more and less than 10 is denoted as B); IC50 ([3]; read-out: NCI-H441 cell proliferation inhibitory activity, 50% proliferation inhibitory concentration (IC50 value), NCI-H441, four days, CellTiter-Glo): 0.0012 µM
12 | CC[C@H](C)[C@@H]1NC(=O)[C@H](CC(C)C)N(C)C(=O)C[C@@H](C(=O)N2CCOCC2)N(CC)C(=O)[C@H](C2CCCC2)N(C)C(=O)C2(CCC2)NC(=O)[C@@H]2CC(F)(F)CN2C(=O)[C@H](CCc2cc(F)c(C(F)(F)F)c(F)c2)NC(=O)CN(C)C(=O)[C@H](Cc2ccc(C(F)(F)F)cc2)N2CCCCC[C@@H](C2=O)N(C)C(=O)CN(C)C1=O [PP0954] | A (a compound having 10 or more and less than 20 is denoted as A) | A (a compound having 10 or more and less than 20 is denoted as A) | 0.439 µM | 
13 | CCCN1C(=O)CN(C)C(=O)[C@@H]2CCN2C(=O)[C@H]([C@@H](C)CC)NC(=O)[C@H](CC(C)C)N(C)C(=O)C[C@@H](C(=O)N2CCOCC2)NC(=O)[C@H](C2CCCC2)N(C)C(=O)C2(CCCC2)NC(=O)[C@@H]2C[C@@H](OCC)CN2C(=O)[C@H](CCc2ccc(C(F)(F)F)c(Cl)c2)NC(=O)CN(C)C(=O)[C@@H]1Cc1ccc(C(F)(F)F)cc1 [PP0341] ([NMeL]I[Aze][Sar][NPrPhe(4-CF3)][Sar][hPhe(3-Cl-4-CF3)][Hyp](Et)[Ac5c][NMeGly(cPent)]D-Morpholide; lactam N-11) | B (a compound having 3 or more and less than 10 is denoted as B) | B (a compound having 3 or more and less than 10 is denoted as B) | 0.135 µM | 

Reference: US20240158446A1, “CYCLIC COMPOUND HAVING SELECTIVE INHIBITORY ACTION ON KRAS OVER HRAS AND NRAS” (CHUGAI SEIYAKU KABUSHIKI KAISHA, priority 2021, published 2024)
